Results on 16 compounds are retold here after patent US9120812B2, “Pyrimidooxazocine derivatives as mTOR-inhibitors” (SANOFI, priority 2012, dated 2015).

One experiment deals with Akt-pS473 in U87MG cells. The settings on record: Homo sapiens, U-87 MG; for IC50: read-out: U87 Akt-pS473 % Inhibition or IC50, nM (IC50), U87MG cells; for inhibition at 1 µM: read-out: U87 Akt-pS473 % Inhibition.
The subject of the next experiment is U87MG tumour cells. Kind of experiment: Test of in vitro proliferation of U87MG tumour cells. Format: cell-based. The settings on record: Homo sapiens, U-87 MG, 72 h, U87MG cells, 72 hours; read-out: U87 Cell Proliferation IC50. The procedure: Model 4: Test of in vitro Proliferation of U87MG Tumour Cells.
The cell growth is determined with the reagent CellTiter 96 AQueous One Solution Cell Proliferation Assay from Promega (Cat. No. G3581).

The target of experiment [1] is mTOR (human recombinant aa mTOR 1360-2549) (Homo sapiens (Human), UniProt P42345). Kind of experiment: mTOR enzymatic test by TR-FRET (phosphorylation of GFP-4EBP1). Format: biochemical. The procedure: Model 1: mTOR Enzymatic Test by TR-FRET (Time-resolved Fluorescence Resonance Energy Transfer).
The test detects the phosphorylation of the substrate GFP-4EBP1 using a terbium-labelled antibody that is specific for the phospho-Thr46 epitope. Binding of the Tb-antibody to the phosphorylated GFP peptide allows the transfer of energy from Tb, excited at 340 nm, to GFP with an increase in the fluorescence emission of the GFP at 520 nm. […] The mixture is incubated for 30 minutes at room temperature. 10 μl of solution are taken up and the reaction is quenched by adding 10 μl of Tb-antibody solution (Invitrogen PV4757)/EDTA (2 nM Tb-Ac and 10 mM EDTA final). After 60 minutes at room temperature, the fluorescence at 490 nm, from the Tb emission, and at 520 nm, from the GFP emission, is measured in a BMG PHERAstar reader equipped with a Lanthascreen™ filter (excitation at 340 nm, emission at 490 and 520 nm). The results are given in the form of the 520/490 ratio.
(In general: TR-FRET usually uses a lanthanide donor and a delayed reading to cut background.)

A further experiment concerns the target PI3Kα (p110α/p85α) (Homo sapiens (Human), UniProt P42336). Kind of experiment: PI3Kα enzymatic test by measuring the consumption of ATP. Format: biochemical. The procedure:
Model 2: PI3Kα Enzymatic Test by Measuring the Consumption of ATP.
The test uses a lucifeurerin/luciferase system to measure the concentration of ATP and its consumption during the enzymatic reaction. The test is performed in 96-well format (Corning/Costar 96 black flat-bottomed half-wells plate, ref. 3694) in a total volume of 30 μl.
To 1 μl of inhibitor in 100% DMSO are added (final concentrations) 50 μM of the substrate PIP2 ((L-α-phosphatidyl-D-myoinositol 4,5-bisphosphate, Echelon 117P-4516-0500), 2 μM of ATP and 1.7 μg/ml of PI3Kα, (p110α/p85α, Invitrogen PV4788) in a buffer of Tris/HCl 50 mM pH 7.5, EGTA 1 mM, MgCl2 10 mM, Chaps 0.03%, 1 mM DTT). After 90 minutes, the reaction is quenched by adding 20 μl/well of KinaseGlo reagent (Promega V6713). After 10 minutes in the dark, the luminescence is read on the PHERAStar microplate reader (reading at 0.8 sec/well).
The IC50 values are determined by the preparation of successive threefold dilutions on at least a scale of 10 000.

A value given as a limit tells only on which side of the number the result lay.

Sequence of PI3Kα (p110α/p85α) (P42336 whole entry): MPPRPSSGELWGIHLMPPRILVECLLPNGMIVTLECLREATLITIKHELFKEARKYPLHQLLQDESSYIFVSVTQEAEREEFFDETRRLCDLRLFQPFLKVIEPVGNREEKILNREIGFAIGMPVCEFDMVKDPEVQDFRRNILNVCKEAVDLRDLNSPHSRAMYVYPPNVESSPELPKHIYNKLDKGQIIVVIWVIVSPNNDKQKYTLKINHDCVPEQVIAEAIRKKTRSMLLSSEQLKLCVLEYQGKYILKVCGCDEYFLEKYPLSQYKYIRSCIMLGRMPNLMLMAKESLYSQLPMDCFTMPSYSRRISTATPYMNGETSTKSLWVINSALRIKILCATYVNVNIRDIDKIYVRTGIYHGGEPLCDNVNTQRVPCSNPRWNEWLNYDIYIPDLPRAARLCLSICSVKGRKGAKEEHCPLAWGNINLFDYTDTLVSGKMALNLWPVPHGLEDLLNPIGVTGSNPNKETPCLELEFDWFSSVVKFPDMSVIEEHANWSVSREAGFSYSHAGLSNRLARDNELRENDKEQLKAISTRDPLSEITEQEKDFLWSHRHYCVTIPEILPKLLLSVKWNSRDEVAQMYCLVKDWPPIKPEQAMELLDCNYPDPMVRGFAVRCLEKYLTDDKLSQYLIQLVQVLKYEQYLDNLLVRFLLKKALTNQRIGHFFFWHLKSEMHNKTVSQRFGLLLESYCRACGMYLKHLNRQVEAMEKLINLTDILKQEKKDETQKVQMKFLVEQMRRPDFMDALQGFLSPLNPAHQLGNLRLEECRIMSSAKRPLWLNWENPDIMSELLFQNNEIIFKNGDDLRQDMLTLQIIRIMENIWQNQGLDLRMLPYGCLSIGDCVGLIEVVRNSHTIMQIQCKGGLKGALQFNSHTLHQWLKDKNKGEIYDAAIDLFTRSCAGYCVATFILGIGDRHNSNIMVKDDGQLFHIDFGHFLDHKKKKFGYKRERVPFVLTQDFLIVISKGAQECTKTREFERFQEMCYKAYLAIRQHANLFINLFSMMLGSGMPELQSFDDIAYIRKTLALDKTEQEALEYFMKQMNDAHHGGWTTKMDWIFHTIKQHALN
Sequence of PI3Kα (p110α/p85α) (P27986 whole entry partner): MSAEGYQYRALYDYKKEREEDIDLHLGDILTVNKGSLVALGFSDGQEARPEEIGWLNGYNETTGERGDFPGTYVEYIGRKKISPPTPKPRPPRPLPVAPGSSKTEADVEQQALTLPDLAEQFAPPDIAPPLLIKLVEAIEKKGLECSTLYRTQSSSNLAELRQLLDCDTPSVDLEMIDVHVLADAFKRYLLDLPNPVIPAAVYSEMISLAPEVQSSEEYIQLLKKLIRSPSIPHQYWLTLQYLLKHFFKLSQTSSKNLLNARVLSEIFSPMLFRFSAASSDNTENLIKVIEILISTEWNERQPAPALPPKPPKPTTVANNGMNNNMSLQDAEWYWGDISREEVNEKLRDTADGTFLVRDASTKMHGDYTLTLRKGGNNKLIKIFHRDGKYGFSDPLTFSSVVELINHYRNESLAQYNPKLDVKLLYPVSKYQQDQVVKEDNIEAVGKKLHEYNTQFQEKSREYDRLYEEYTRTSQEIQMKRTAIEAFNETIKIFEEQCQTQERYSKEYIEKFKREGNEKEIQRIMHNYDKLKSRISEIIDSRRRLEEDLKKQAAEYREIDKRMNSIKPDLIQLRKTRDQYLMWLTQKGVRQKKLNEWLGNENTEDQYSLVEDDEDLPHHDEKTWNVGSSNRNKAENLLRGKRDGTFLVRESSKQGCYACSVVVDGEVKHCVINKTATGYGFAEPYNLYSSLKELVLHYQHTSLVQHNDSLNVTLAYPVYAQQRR
Sequence of mTOR (human recombinant aa mTOR 1360-2549) (P42345 1360-2549): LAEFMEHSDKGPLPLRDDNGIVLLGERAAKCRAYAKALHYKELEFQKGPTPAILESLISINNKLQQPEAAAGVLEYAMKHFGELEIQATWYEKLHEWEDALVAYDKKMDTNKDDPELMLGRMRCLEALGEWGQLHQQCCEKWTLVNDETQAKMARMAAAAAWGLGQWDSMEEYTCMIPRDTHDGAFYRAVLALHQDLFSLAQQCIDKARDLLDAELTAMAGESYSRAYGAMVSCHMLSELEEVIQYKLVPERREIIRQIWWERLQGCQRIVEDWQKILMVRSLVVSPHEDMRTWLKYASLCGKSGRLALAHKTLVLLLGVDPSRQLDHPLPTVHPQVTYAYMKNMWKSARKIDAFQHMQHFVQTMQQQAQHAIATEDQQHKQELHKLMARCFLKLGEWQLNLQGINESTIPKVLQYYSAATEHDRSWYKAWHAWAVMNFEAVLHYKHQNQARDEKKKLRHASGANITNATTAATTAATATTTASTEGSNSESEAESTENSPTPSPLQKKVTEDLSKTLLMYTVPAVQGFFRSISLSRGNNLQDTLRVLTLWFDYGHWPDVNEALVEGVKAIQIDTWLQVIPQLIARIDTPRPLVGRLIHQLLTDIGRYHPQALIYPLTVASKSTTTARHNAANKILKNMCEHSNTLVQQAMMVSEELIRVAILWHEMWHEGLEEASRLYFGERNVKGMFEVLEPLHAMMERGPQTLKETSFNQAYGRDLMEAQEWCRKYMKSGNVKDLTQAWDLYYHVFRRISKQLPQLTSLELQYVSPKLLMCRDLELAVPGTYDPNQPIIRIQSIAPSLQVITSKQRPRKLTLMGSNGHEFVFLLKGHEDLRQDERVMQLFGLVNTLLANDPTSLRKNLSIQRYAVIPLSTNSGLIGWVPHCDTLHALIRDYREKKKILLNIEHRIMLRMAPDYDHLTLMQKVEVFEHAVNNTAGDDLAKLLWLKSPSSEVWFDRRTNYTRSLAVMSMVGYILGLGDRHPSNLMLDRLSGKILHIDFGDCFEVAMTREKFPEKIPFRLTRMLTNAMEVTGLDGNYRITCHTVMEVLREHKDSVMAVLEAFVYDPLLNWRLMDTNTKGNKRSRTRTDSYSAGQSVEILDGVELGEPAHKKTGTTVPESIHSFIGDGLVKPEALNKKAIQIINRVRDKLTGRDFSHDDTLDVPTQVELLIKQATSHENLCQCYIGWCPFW
Method for Akt-pS473 in U87MG cells: Model 3: Cellular Test of Phosphorylation of the Epitope S473 of the Akt Protein on the U87MG Line Via an ELISA Test
An electrochemiluminescence signal is generated by a ruthenium-labelled anti-rabbit antibody.
After culturing for 16-20 hours (the cells are at 100% of confluence) at 37° C. under 5% CO2, 1 μl of the chemical compounds in 100% DMSO (1% DMSO final concentration on the cells) is added. The cells are incubated with the compounds for 3 hours at 37° C. under 5% CO2.
The free sites are blocked with 150 μl/well of a buffer of 50 mM Tris pH 7.5, 0.15 M NaCl, 0.02% Tween 20, 3% BSA with stirring at 450 rpm for 1 hour at room temperature, followed by a step of washing with 3×300 μl of a buffer of 50 mM Tris pH 7.5, 0.15 M NaCl, 0.02% Tween 20.
15 μl of cell lysate are mixed with 15 μl of a 50 mM buffer of Tris pH 7.5, 0.15 M NaCl, 0.02% Tween 20, 1% BSA in a precoated ELISA plate (see above), and incubated for 1 hour at room temperature with stirring, followed by a step of washing with 3×300 μl of a buffer of 50 mM Tris pH 7.5, 0.15 M NaCl, 0.02% Tween 20. The pS473 epitope of Akt is detected with a rabbit polyclonal antibody (Cell Signaling, SC9271), diluted 100-fold in 50 mM Tris pH 7.5, 0.15 M NaCl, 0.02% Tween 20, 1% BSA, 25 μl/well (incubation for 1 hour at room temperature with stirring at 450 rpm).
After washing (see above), revelation is performed with a ruthenium-labelled anti-rabbit antibody (MSD R32AB1), diluted 3000-fold in a 50 mM buffer of Tris pH 7.5, 0.15 M NaCl, 0.02% Tween 20, 1% BSA, 25 μl/well, followed by incubation for 1 hour at room temperature with stirring at 450 rpm, and the plates are covered with aluminium.
After a further washing step, the plates are emptied and 150 μl of MSD Read Buffer T diluted fourfold with water are added. The electrochemiluminescence is measured on the MSD Sector Imager 6000.

On to `CCN1CC(C)(C)Oc2nc(N3CC4CCC(C3)O4)nc(-c3ccc(NC(=O)N[C@@H](C)CO)c(F)c3)c2C1=O` [Example 57, 1-{4-[6-Ethyl-8,8-dimethyl-2-(8-oxa-3-azabicyclo[3.2.1]oct-3-yl)-5-oxo-5,6,7,8-tetrahydro-9-oxa-1,3,6-triazabenzocyclohepten-4-yl]-2-fluorophenyl}-3-((S)-2-hydroxy-1-methylethyl)urea], for which the IC50 with Akt-pS473 in U87MG cells was > 1000 nM; with U87MG tumour cells, 7580 nM.
On the same counts, the results for `CCN1CC(C)(C)Oc2nc(N3CC4CCC(C3)O4)nc(-c3ccc(NC(=O)Nc4cnccn4)cc3)c2C1=O` [Example 125, 1-{4-[6-Ethyl-8,8-dimethyl-2-(8-oxa-3-azabicyclo[3.2.1]oct-3-yl)-5-oxo-5,6,7,8-tetrahydro-9-oxa-1,3,6-triazabenzocyclohepten-4-yl]phenyl}-3-pyrazin-2-ylurea] are 86 nM and 260 nM.
In the case of `Cc1cc(NC(=O)Nc2ccc(-c3nc(N4CC5CCC(C4)O5)nc4c3C(=O)N(C)CC(C)(C)O4)cc2F)ccn1` [Example 60, 1-{2-Fluoro-4-[6,8,8-trimethyl-2-(8-oxa-3-azabicyclo[3.2.1]oct-3-yl)-5-oxo-5,6,7,8-tetrahydro-9-oxa-1,3,6-triazabenzocyclohepten-4-yl]phenyl}-3-(2-methylpyridin-4-yl)urea], the IC50 in the experiment with Akt-pS473 in U87MG cells turned out to be 17 nM; in experiment [1] it was 58 nM; with U87MG tumour cells, 46 nM.
Take `CCN1CC(C)(C)Oc2nc(N3CC4CCC(C3)O4)nc(-c3ccc(NC(=O)N[C@H](C)CO)c(F)c3)c2C1=O` [Example 27, 1-{4-[6-ethyl-8,8-dimethyl-2-(8-oxa-3-azabicyclo[3.2.1]oct-3-yl)-5-oxo-5,6,7,8-tetrahydro-9-oxa-1,3,6-triazabenzocyclohepten-4-yl]-2-fluorophenyl}-3-((R)-2-hydroxy-1-methylethyl)urea]: the IC50 with Akt-pS473 in U87MG cells was > 1000 nM; in experiment [1], 394 nM; with U87MG tumour cells, 9150 nM.
Take `CCN1CC(C)(C)Oc2nc(N3CC4CCC(C3)O4)nc(-c3ccc(NC(=O)Nc4ccnc(N5CCC(F)(F)CC5)c4)c(F)c3)c2C1=O` [Example 261, 1-(4,4-Difluoro-3,4,5,6-tetrahydro-2H-[1,2′]bipyridinyl-4′-yl)-3-{4-[6-ethyl-8,8-dimethyl-2-(8-oxa-3-azabicyclo[3.2.1]oct-3-yl)-5-oxo-5,6,7,8-tetrahydro-9-oxa-1,3,6-triazabenzocyclohepten-4-yl]-2-fluorophenyl}urea]: the IC50 in the experiment with Akt-pS473 in U87MG cells was 20 nM; in the experiment on U87MG tumour cells, 160 nM.
In the case of `CCN1CC(C)(C)Oc2nc(N3CCOCC3)nc(-c3ccc(NC(=O)NOC)cc3)c2C1=O` [Example 104, 1-Methoxy-3-[4-(6-ethyl-8,8-dimethyl-2-morpholin-4-yl-5-oxo-5,6,7,8-tetrahydro-9-oxa-1,3,6-triazabenzocyclohepten-4-yl)phenyl]urea], the IC50 is 1490 nM in experiment [1] and > 10000 nM in the experiment with U87MG tumour cells. Moreover, the “PI3Ka IC50” value at PI3Kα (p110α/p85α) is 3750 nM.
On to `CCN1CC(C)(C)Oc2nc(N3CCOCC3)nc(-c3ccc(OC)c(CO)c3)c2C1=O` [Example 100, 6-Ethyl-4-(3-hydroxymethyl-4-methoxyphenyl)-8,8-dimethyl-2-morpholin-4-yl-7,8-dihydro-6H-9-oxa-1,3,6-triazabenzocyclohepten-5-one], for which the IC50 was 7280 nM in experiment [1] and > 10000 nM in the experiment on U87MG tumour cells. Also, on PI3Kα (p110α/p85α), the “PI3Ka IC50” value was determined as 7440 nM.
In the case of `CCNC(=O)Nc1ccc(-c2nc(N3C[C@@H](C)O[C@@H](C)C3)nc3c2C(=O)N(CC)CC(C)(C)O3)cc1` [Example 114, 1-{4-[2-((2S,6R)-2,6-Dimethylmorpholin-4-yl)-6-ethyl-8,8-dimethyl-5-oxo-5,6,7,8-tetrahydro-9-oxa-1,3,6-triazabenzocyclohepten-4-yl]phenyl}-3-ethylurea], the values for the IC50 (in experiment [1]; with U87MG tumour cells) were 1220 nM and > 10000 nM, respectively. Besides, the “PI3Ka IC50” value on PI3Kα (p110α/p85α) is on record as >10000 nM.
In the case of `CCN1CC(C)(C)Oc2nc(N3CC4CCC(C3)O4)nc(-c3ccc(NC(=O)Nc4cc(C)nc(C)n4)c(F)c3)c2C1=O` [Example 90, 1-(2,6-Dimethylpyrimidin-4-yl)-3-{4-[6-ethyl-8,8-dimethyl-2-(8-oxa-3-azabicyclo[3.2.1]oct-3-yl)-5-oxo-5,6,7,8-tetrahydro-9-oxa-1,3,6-triazabenzocyclohepten-4-yl]-2-fluorophenyl}urea], the inhibition (in general, the share of the control response that was lost under treatment) at 1 µM in the experiment with Akt-pS473 in U87MG cells stood at 64%. Further, the IC50 is 450 nM in experiment [1] and 2900 nM in the experiment on U87MG tumour cells.
As for `CCN1CC(C)(C)Oc2nc(N3CC4CCC(C3)O4)nc(-c3ccc(NC(=O)Nc4ccn(C)n4)cc3)c2C1=O` [Example 122, 1-{4-[6-Ethyl-8,8-dimethyl-2-(8-oxa-3-azabicyclo[3.2.1]oct-3-yl)-5-oxo-5,6,7,8-tetrahydro-9-oxa-1,3,6-triazabenzocyclohepten-4-yl]phenyl}-3-(1-methyl-1H-pyrazol-3-yl)urea], the IC50 in the experiment with Akt-pS473 in U87MG cells was 140 nM; with U87MG tumour cells, 340 nM.
Turning to `COCCN1CC(C)(C)Oc2nc(N3CCOC[C@@H]3C)nc(-c3ccc(NC(=O)Nc4cccc(OC(F)F)c4)cc3)c2C1=O` [Example 216, 1-(3-Difluoromethoxyphenyl)-3-{4-[6-(2-methoxyethyl)-8,8-dimethyl-2-((S)-3-methylmorpholin-4-yl)-5-oxo-5,6,7,8-tetrahydro-9-oxa-1,3,6-triazabenzocyclohepten-4-yl]phenyl}urea], the IC50 in experiment [1] came out at 125 nM; in the experiment on U87MG tumour cells it was 514 nM. Besides, the “PI3Ka IC50” value on PI3Kα (p110α/p85α) was found to be 1830 nM.
On the same counts, the results for `CCN1CC(C)(C)Oc2nc(N3CCOCC3)nc(-c3ccc(N)cc3)c2C1=O` [Example 102, 4-(4-Aminophenyl)-6-ethyl-8,8-dimethyl-2-morpholin-4-yl-7,8-dihydro-6H-9-oxa-1,3,6-triazabenzocyclohepten-5-one] are 927 nM, 9830 nM and 3610 nM.
In the case of `CCN1CC(C)(C)Oc2nc(N3CC4CCC(C3)O4)nc(-c3ccc(NC(=O)OC[C@@H](C)O)c(F)c3)c2C1=O` [Example 239, {4-[6-Ethyl-8,8-dimethyl-2-(8-oxa-3-azabicyclo[3.2.1]oct-3-yl)-5-oxo-5,6,7,8-tetrahydro-9-oxa-1,3,6-triazabenzocyclohepten-4-yl]-2-fluorophenyl}carbamic acid (R)-2-hydroxypropyl ester], the inhibition at 1 µM in the experiment on Akt-pS473 in U87MG cells stood at 38%. In addition, the figures for the IC50 (in experiment [1]; with U87MG tumour cells) were 1070 nM and > 10000 nM, respectively.
As to `COCCN1CC(C)(C)Oc2nc(N3CC4CCC(C3)O4)nc(-c3ccc(NC(=O)Nc4cccc(OC(F)F)c4)c(F)c3)c2C1=O` [Example 220, 1-(3-Difluoromethoxyphenyl)-3-{2-fluoro-4-[6-(2-methoxyethyl)-8,8-dimethyl-2-(8-oxa-3-azabicyclo[3.2.1]oct-3-yl)-5-oxo-5,6,7,8-tetrahydro-9-oxa-1,3,6-triazabenzocyclohepten-4-yl]phenyl}urea], the IC50 in the experiment on Akt-pS473 in U87MG cells is 30 nM; in experiment [1], 348 nM; in the experiment with U87MG tumour cells, 285 nM.
Regarding `CCN1CC(C)(C)Oc2nc(N3CC4CCC(C3)O4)nc(-c3ccc(NC(=O)Nc4ccnn4C)cc3)c2C1=O` [Example 115, 1-{4-[6-Ethyl-8,8-dimethyl-2-(8-oxa-3-azabicyclo[3.2.1]oct-3-yl)-5-oxo-5,6,7,8-tetrahydro-9-oxa-1,3,6-triazabenzocyclohepten-4-yl]phenyl}-3-(2-methyl-2H-pyrazol-3-yl)urea], the IC50 in experiment [1] was determined as 147 nM; in the experiment on U87MG tumour cells, 5000 nM. Also, the “PI3Ka IC50” value at PI3Kα (p110α/p85α) is given as >10000 nM.
Take `CCN1CC(C)(C)Oc2nc(N3CC4CCC(C3)O4)nc(-c3ccc(NC(=O)Nc4ccc(OC)nc4)c(C)c3)c2C1=O` [Example 175, 1-{4-[6-Ethyl-8,8-dimethyl-2-(8-oxa-3-azabicyclo[3.2.1]oct-3-yl)-5-oxo-5,6,7,8-tetrahydro-9-oxa-1,3,6-triazabenzocyclohepten-4-yl]-2-methylphenyl}-3-(6-methoxypyridin-3-yl)urea]: the IC50 turned out to be 585 nM in experiment [1] and 3050 nM in the experiment with U87MG tumour cells. Moreover, the “PI3Ka IC50” value on PI3Kα (p110α/p85α) is >10000 nM.
